From publication PMC6778934, “^99mTc-Labeled LyP-1 for SPECT Imaging of Triple Negative Breast Cancer” (Contrast Media & Molecular Imaging, 2019)

Test system: 4T1 cells
Type: cell-based, murine
Method: 4T1 murine breast carcinoma cells were purchased from American Type Culture Collection (Manassas, VA, USA) and maintained in RPMI-1640 supplemented with 10% fetal bovine serum (FBS, Gibco, Grand Island, NY, USA). To produce breast cancer models, 4-week-old female BALB/c nude mice were purchased from the Shanghai Laboratory Animal Center at the Chinese Academy of Sciences (Shanghai, China) and subcutaneously injected in the left lateral thigh with 1 × 10^6 tumor cells suspended in 100 μL of PBS. All animal experiments were performed according to protocols established by the Ethics Committee of Shanghai General Hospital. To assess potential cytotoxic effects of LyP-1 or ARAL, cell proliferation assays were conducted with CCK-8 (Dojindo Technologies, Kumamoto, Japan). 4T1 cells (1 × 10^4 per well) were plated on 96-well plates in the RPMI-1640 medium with 10% FBS. After 24 h, the medium was replaced by 100 μL of fresh containing different concentrations of LyP-1 or ARAL (0.1, 1, 5, 10, 20, or 50 μM) for another 24 h. Then, 10 μL CCK-8 was added for 2 h. Absorbance was measured at 450 nm using a Varioskan Flash multimode microplate reader (Thermo Fisher Scientific, Waltham, MA, USA).

C[C@@H](O)[C@@H]1NC(=O)[C@H](CCCNC(=N)N)NC(=O)[C@H](CCCCN)NC(=O)[C@H](CC(N)=O)NC(=O)CNC(=O)[C@@H](N)CSSC[C@@H](C(=O)O)NC(=O)CNC(=O)[C@H](CCCNC(=N)N)NC1=O [LyP-1]
cell viability compared with that for 0.1–10 μM: slightly but not significantly lower
